row,SMILES,melting point [°C]
1,CCOCc1nc2c(N)nc3ccccc3c2n1CC1(NC(=O)OC(C)(C)C)CCCCC1,82 to 92
2,CNC(=O)c1c(NC(=O)c2cc(C(F)(F)F)nn2-c2ncccc2Cl)c(Br)cc2cn[nH]c12,> 255
3,COc1ccc(N2CCN(c3c(C)c(C)c4c(c3C)CC(C)O4)CC2)cc1C (stereo not drawn),141 to 142
4,Cc1c(C)c2c(c(C)c1N)CC(C)(CN1CCC(Cc3ccccc3)CC1)O2 (stereo not drawn),71 to 73
5,CCCCCS(=O)(=O)NC(=O)/C=C/c1cc(OCCCC)nn1Cc1ccc(C(F)(F)F)cc1Cl,130 to 132
6,CC(=O)N1CCC(C)(C)C(=O)c2ccc(Cl)cc2CCC1=O,113 to 115
7,Cn1c(=O)c2cnc(-c3ccccc3)nc2n(C)c1=O,279 to 281
8,COC(=O)c1c(-c2ccc(OC)cc2)sc2cc(OC)ccc12,85.4 to 86.6
9,CCCC(=O)c1cnc(C(CC2CCCC2)c2ccc(S(C)(=O)=O)cc2)[nH]1 (stereo not drawn),159 to 163
10,CC(=O)NNc1nc(C(F)(F)F)nc(-c2ccccc2)c1-c1ccccc1,113 to 116
11,Cc1ccccc1C(O)c1nnn[nH]1 (racemic),124 to 126
12,COC(=O)c1cc2c([nH]c1=O)CCCCCC2,220 to 224
13,Cc1c(Cl)nc(N2CCNCC2)nc1NC(C)C,199
14,Cc1ccc(C(=O)NCCNC(=O)OC(C)(C)C)s1,109 to 110
15,CCCCCc1ccc(Br)nn1,31 to 32
16,COc1cc2c(cc1Br)-c1cc3c(n1CC2)C(=O)N(C(C)(C)C)CCC(C)(C)C3,175 to 177
17,CCN(CC1CCCC1)c1nc2ccccc2cc1CN(Cc1cc(C(F)(F)F)cc(C(F)(F)F)c1)c1nnc(C)o1,126 to 127
18,Cc1cccc(OCC2=NCCN2S(C)(=O)=O)c1C,142 to 143
19,COc1ccc(-c2[nH]nc3c2C(=O)c2c(NC(=O)Cc4ccc(Cl)cc4Cl)cccc2-3)cc1,286

row,SMILES,melting point [°C]
1,COC(=O)c1cc(Nc2ccc(C)cc2)c(Nc2ccc(C)cc2)cc1C(=O)OC,170 to 172
2,O=C(NCC12CC3CC(CC(C3)C1)C2)c1c(Cl)ccc2nc(N3CCC[C@@H]3C(=O)O)ccc12,157 to 160
3,CON=C(C1=NCCS1)c1ccccc1COc1cc(C)ccc1C,79 to 82
4,CCN(c1ccc(C)cc1)c1nc(=O)c2cccnc2s1,158
5,COc1c(C=Cc2ccc(C=CC3=C(C#N)C(=C(C#N)C#N)OC3(C)C(F)(F)F)s2)cc2c3c1CCCN3CCC2 (stereo not drawn),159 to 161
6,CC(C)CC(CS)C(=O)N[C@@H](C)C(=O)N[C@@H](CCCNC(=N)N)C(=O)O (stereo partly drawn),140 to 150
7,O=C1CCc2cccc(Oc3ccccc3Cl)c2O1,123 to 125
8,Nc1ccccc1C(=O)c1ccc(Cl)cc1,100 to 102
9,COC(=O)c1cccc(-c2ccccc2OC)c1,92 to 93
10,O=C(O)c1ccc(-c2cnc3[nH]c(=O)n(CC4CCCCC4)c3n2)cc1,> 350
11,O=C(Nc1ccc(Cl)c(Cl)c1)NS(=O)(=O)c1ccc2c(c1)C(=O)CO2,209 to 211
12,CSc1c(C(=O)NN=Cc2nccs2)[nH]c2ccccc12,216 to 222
13,O=[N+]([O-])c1c(Cl)nc2ccccc2c1NCc1ccccn1,179 to 182
14,COC(=O)CCC(=O)c1ccc(O)cc1,115 to 116
15,COc1ccc(C(=O)C2=C(c3ccccc3)c3ccc(OC)cc3C2)cc1,113 to 114
16,Cn1c2c(c3ccc(F)cc31)C(=O)CCC2,174 to 175
17,Cc1[nH]c(C(=O)N2CCC(C(=O)O)CC2)c(C)c1-c1nc2ccc(C(=O)c3ccccc3)cc2[nH]1,267 to 271
18,Cc1ccc2c(C3CCN(CCN4CCN(C(C)C)C4=O)CC3)cn(-c3ccc(F)cc3)c2c1,124

# Next, values leading:
row,melting point [°C],SMILES
1,233 to 235,O=C(CC1CCCCC1)Nc1c(Cl)ccc2nc(N3CCC(c4noc(=O)[nH]4)CC3)ccc12
2,146 to 148,C1=C(CCCN2CCCCC2)c2ccccc2C12CCCCC2
3,104 to 106,CC(=O)N1CCN=C1CC(c1ccccc1)c1ccccc1
4,163 to 165,COc1ccc(NC(=O)C=NO)cc1C
5,> 235,O=C1NC(=O)C(Cc2ccc([N+](=O)[O-])cc2)N1 (stereo not drawn)
6,88,COc1ccc(C2CCCN(C(=O)C(F)(F)F)C2)cc1 (stereo not drawn)
7,115 to 118,CCCc1c(OCCCCCCc2cccc(OC)c2OC)ccc(C(=O)O)c1O
8,143,O=S(=O)(CCCl)C1=NN(S(=O)(=O)CCCl)CS1
9,160 to 164,CC(=O)c1ccc(-c2ccc(S(C)(=O)=O)cc2)o1
10,171 to 173,COc1ccc(CC(=O)NC2CCN(Cc3ccccc3)CC2)cc1
11,120 to 121,COC(=O)c1ccc(Cl)c(C(=O)NOCc2ccc(Cl)cc2)c1Cl
12,180,Cn1cc(-c2cc(-c3cccnc3)ccn2)n(-c2ccc(C(C)(C)C#N)cc2)c1=O
13,78 to 82,CN(C)c1ccc(C=CC(C=C(c2ccc(N(C)C)cc2)c2ccc(N(C)C)cc2)C=C(c2ccc(N(C)C)cc2)c2ccc(N(C)C)cc2)cc1
14,82 to 85,COC(=O)c1ccccc1C=Nc1ccc(Oc2ccc(C(F)(F)F)cc2Cl)cc1O
15,100 to 103,O=C(NC(C(=O)NC(CO)COCc1ccccc1)C(Cc1ccccc1)C(=O)O)OCc1ccccc1 (stereo not drawn)
16,106 to 107,CN1CCCN(c2ccc3nc4c(n3n2)CCCC4)CC1
17,206 to 209,O=C1CCn2c(-c3ccccc3)nc3c(Cl)ccc1c32
18,55 to 60,CCCCCCCCN(CCCCCCCC)C(=O)Nc1ccccc1CCc1cc(C(C)(C)C)c(O)c(C(C)(C)C)c1

row,melting point [°C],SMILES
1,159,CCCCCCCCCCCCCCCCCCC1(CO)OC(n2cccnc2=O)C(O)C1O (stereo not drawn)
2,87 to 89,Cc1ncoc1C(C)(O)c1ccsc1 (stereo not drawn)
3,129 to 131,CCCOC(=O)c1c(CN2CCCCC2)nc2cc(OC)c(OC)cc2c1-c1ccc(OC)c(OC)c1
4,143,COc1ccc(C(=O)NC[C@@H]2CN3C(=O)C[C@H]3O2)cc1 (racemic)
5,86 to 87,Cc1sc2c(c1C(=O)CCCl)NC(=O)CCC2
6,140 to 141,CCOC(=O)CCCCCOc1ccc(C(=O)Nc2ccccc2Oc2ccccc2-c2nnn[nH]2)cc1
7,95 to 96,CCC(=O)Nc1cc(C(C)(C)C)on1
8,161 to 163,CN(C)C=NS(=O)(=O)c1cc2cnc(CO)cc2o1
9,277 to 279,O=C1CNCc2cc(-c3ccc(F)cc3)c(C=NO)c3ccn1c23
10,182 to 183,O=Cc1cnc2sc3cc(F)ccc3n12
11,33 to 35,CCOC(=O)c1c(C)nc(Cl)c([N+](=O)[O-])c1NC(C)CC (stereo not drawn)
12,174,O=c1c2cnc3ccc(F)cc3c2on1-c1ccccc1
13,65 to 68,C#CCOc1c(CO)ccc2ccccc12
14,156 to 159,CC(=O)N[C@@H](C)COc1ccc2nc(-c3ccc(OCC4CC4)c(Cl)c3)oc2c1
15,100,O=C1CCCCC(CO)N1 (stereo not drawn)
16,150 to 153,CC(=O)N1CCN=C1C(O)(c1ccccc1)c1ccccn1 (stereo not drawn)
17,47 to 49,CCCCCCCc1c(C)[nH]c(C(=O)OCC)c1C
18,90 to 92,CCc1ccc(CC(C)(C)NC(C)=O)cc1
